Tested on: primary culture of human coronary artery smooth muscle cells
Test: Affymetrix U133Av2 microarray gene expression
Assay type: cell-based
Details: 100 nM, 30 hr, ratio to no-drug control
Description: Microarray: […] While the yield of total RNA was low ([…] total per sample), the RNAs were intact as judged by Agilent 2100 analysis. One μg of total RNA from each sample was used to prepare biotin-labeled cRNA target using standard Affymetrix protocols. Prepared cRNA targets were of good quality and quantity. The Affymetrix Human chip U133Av2 was used (22,000+ probe sets) and 10 μg cRNA target was applied to each array. […] Scanned images were loaded into the Rosetta Resolver 4.0 database and processed using the Resolver Affymetrix error model. Within Resolver the drug treated sample replicates (n=3) were informatically combined and ratios constructed relative to the combined control (no addition of drug) samples. The Resolver Affymetrix error model was used to develop each ratio and calculate a p-value. The Resolver error model is robust and includes reporter level, background and error values in the calculation of statistical significance. A combination of hierarchical clustering, gene ontology analysis and pathway mapping were used to assess the function of the regulated genes.

In the case of `C=C1/C(=C\C=C2/CCC[C@]3(C)[C@@H]([C@H](C)CCCC(C)(C)O)CC[C@@H]23)C[C@@H](O)C[C@@H]1O` [calcitriol, 1-alpha-25-dihydroxyvitamin D3], the “FC CD1D antigen, d polypeptide (205789_at)” value is reported as 6.95, the “FC CDK5 regulatory subunit associated protein 2 (220935_s_at)” value is reported as 2.67 and the “FC Kruppel-like factor 4 (gut) (220266_s_at)” value is reported as 2.67. For the same compound, the “FC PMS2 postmeiotic segregation increased 2 (S. cerevisiae) (209805_at)” value was 2.85, the “FC Wilms tumor 1 (206067_s_at)” value was 3.55 and the “FC Wilms tumor 1 (216953_s_at)” value was 6.63. The “FC Wilms tumor associated protein (206954_at)” value was 2.96, the “FC basic helix-loop-helix domain containing, class B, 3 (221530_s_at)” value was −2.00 and the “FC cholecystokinin B receptor (210381_s_at)” value was −1.65. The “FC cyclin F (204827_s_at)” value was −1.09, the “FC cysteine and glycine-rich protein 2 (207030_s_at)” value was −2.13 and the “FC cysteine and glycine-rich protein 2 (211126_s_at)” value was −2.21. For the same compound, the “FC ecotropic viral integration site 2A (204774_at)” value was −1.77, the “FC fibroblast growth factor 9 (glia-activating factor) (206404_at)” value was 2.07 and the “FC insulin-like growth factor 1 (somatomedin C) (209540_at)” value was 4.39. For the same compound, the “FC insulin-like growth factor 1 (somatomedin C) (209541_at)” value was 2.78, the “FC insulin-like growth factor 1 (somatomedin C) (209542_x_at)” value was 3.23 and the “FC insulin-like growth factor 1 (somatomedin C) (211577_s_at)” value was 3.47. For the same compound, the “FC mitogen-activated protein kinase 13 (210058_at)” value was 2.27, the “FC mitogen-activated protein kinase 13 (210059_s_at)” value was 3.27 and the “FC myosin heavy polypeptide 10, non-muscle (213067_at)” value was −2.03. The “FC putative lymphocyte G0/G1 switch gene (213524_s_at)” value was 3.69, the “FC retinoblastoma-like 2 (p130) (212332_at)” value was 1.10 and the “FC suppressor of cytokine signaling 2 (203372_s_at)” value was −2.29. For the same compound, the “FC suppressor of cytokine signaling 2 (203373_at)” value was −2.50, the “FC tetraspan 1 (209114_at)” value was −4.34 and the “FC transforming growth factor, beta 2 (209909_s_at)” value was 2.91. The “FC transforming growth factor, beta 2 (220407_s_at)” value was 2.97, the “FC transforming growth factor, beta 3 (209747_at)” value was 2.83 and the “FC angiopoietin 1 (NM_001146)” value (Table 4) was 2.0. The “FC coagulation factor II (thrombin) receptor-like 1 (NM_005242)” value (Table 4) was −1.7, the “FC endothelin receptor type B (NM_000115)” value (Table 4) was 3.4 and the “FC fibroblast growth factor 9 (glia-activating factor) (NM_002010)” value (Table 4) was 2.1. The “FC fibroblast growth factor receptor 3 (achondroplasia, thanatophoric dwarfism) (NM_000142)” value (Table 4) was 1.9, the “FC insulin-like growth factor 1 (somatomedin C) (NM_000618)” value (Table 4) was 2.8 and the “FC matrix metalloproteinase 14 (membrane-inserted) (NM_004995)” value (Table 4) was 2.1. The “FC natriuretic peptide precursor B (NM_002521)” value (Table 4) was −2.0, the “FC oxytocin receptor (NM_000916)” value (Table 4) was −3.0 and the “FC phospholamban (NM_002667)” value (Table 4) was −2.6. For the same compound, the “FC prostaglandin-endoperoxide synthase 1 (prostaglandin G/H synthase and cyclooxygenase) (NM_000962)” value (Table 4) was 2.2, the “FC thrombomodulin (NM_000361)” value (Table 4) was 3.3 and the “FC thrombospondin 1 (AI812030)” value (Table 4) was −3.2. For the same compound, the “FC transforming growth factor, beta 2 (NM_003238)” value (Table 4) was 2.9 and the “FC transforming growth factor, beta 3 (J03241)” value (Table 4) was 2.9.
